Results: patent US11235023B2, “Beta-hairpin peptidomimetic with elastase inhibitory activity and aerosol dosage forms thereof” (POLYPHOR AG, priority 2016, dated 2022)
Non-standard residues stand in square brackets, D forms with d. Residues, ends and D or L forms follow the SMILES beside them. Gly(octyl) = CCCCCCCC[C@H](N)C(=O)O

What was measured:
[1] = GLP-compliant 28-day inhalation toxicity study in rats; type: in vivo, rat
Protocol: In a GLP-compliant 28-day inhalation toxicity study in rats, conducted by Charles River Laboratories Preclinical Services, Tranent, Edinburgh, UK, the formulation described in Example 2 and dilutions thereof as well as the vehicle were administered using the Pari eFlow® XL 30 nebulizer device (Pari Pharma, Starnberg, Germany) for 100 min per day for 28 days, followed by a 2-week recovery period. […] Ten animals were used for the main toxicity study, and 5 additional animals for the recovery phase. Parameters assessed included clinical signs, body weights, food consumption, ophthalmic examination, clinical pathology, gross necropsy findings, organ weights and histopathologic examinations. […] This was associated with reduction in food consumption in treated animals. There was a good recovery in body weight gain during the recovery period between day 28 and 42.

[2] = target: T1, human neutrophil elastase (Homo sapiens, UniProt P08246); experiment: Phase-Ib study in CF patients, active neutrophil elastase in sputum by FRET assay; type: in vivo
T1 construct: from tissue; host or cells: spontaneous sputum of patients with cystic fibrosis (PBS-soluble fraction)
T1 sequence (P08246 30-267): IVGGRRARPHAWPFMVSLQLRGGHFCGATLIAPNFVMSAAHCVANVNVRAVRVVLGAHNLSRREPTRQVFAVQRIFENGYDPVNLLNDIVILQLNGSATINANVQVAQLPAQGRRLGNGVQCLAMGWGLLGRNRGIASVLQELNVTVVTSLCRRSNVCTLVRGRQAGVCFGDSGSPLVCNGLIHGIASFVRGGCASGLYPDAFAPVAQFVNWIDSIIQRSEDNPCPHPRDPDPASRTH
Protocol: The pharmacodynamic effect of ascending single doses of active compound was investigated by evaluation of neutrophil elastase (NE) activity in sputum using FRET (fluorescence resonance energy transfer) assay after PBS aliquotation and freezing.
On the day of screening, if possible, for baseline assessment of NE activity, on Day −1 as soon as possible after the subject's arrival at the study site for baseline assessment of NE activity, on Day 1 in the period of time between 1 h and 3 h after start of inhalation, and in the morning of Day 2, at approx. 24 h after start of inhalation.
Spontaneous sputum samples were collected in polystyrene Petri dishes and put on ice immediately. All processing steps had to be performed with cold reagents and on ice whenever possible. Plugs were separated from saliva, but the latter was not discarded. If a sputum sample was taken for both PK and NE activity in sputum analysis, the plug was split in 2 approximately equal parts. One part was processed for evaluation of NE activity in sputum the other one for PK analysis, as described above.
For evaluation of NE activity in sputum, at first, the weight of the sputum sample was determined and 8 mL cold phosphate-buffered saline (PBS) per gram purified sputum was added. The sample was vortexed for 30 s at room temperature (15-24° C.). Then, the soluble fraction was separated from the sputum pellet by centrifugation (10 min at 1000×g and 4° C.). The supernatant was transferred to a fresh tube.
Remaining insoluble particles were separated by a second centrifugation step at 3500×g for 15 min at 4° C. If the supernatant was not aliquoted immediately, the PBS/sputum supernatant was transferred to a fresh tube.
10 aliquots of 50 μL PBS/sputum were transferred into transfer tubes for evaluation. Moreover, 4 aliquots of 50 μL PBS/sputum were transferred into transfer tubes as backup. In case there was a leftover, the remaining volume was immediately transferred into a transfer tube for evaluation. Any leftover exceeding 2.0 mL was discarded.
The NE activity in sputum was evaluated by using a FRET elastase assay adapted from an assay described in Nature Protocols, 2008, 3, 991 (B. Korkmaz, S. Attucci, M. A. Juliano et al.) and validated by MLM Medical Labs GmbH, Mönchengladbach, Germany.
The assay is based on the reaction of human neutrophil elastase with the substrate 2Abz-Ala-Pro-Glu-Glu-Ile-Met-Arg-Arg-Gln-Tyr(3NO2)—OH (GeneCust Europe S. A., Ellange, Luxembourg, #P160301-SY452824). By adding the substrate solution the enzyme reaction is started and the elastase present in the samples reacts with added substrate. The product of the reaction is detected through fluorescence measurement and the initial reaction velocity is determined. The concentration of active elastase in the unknown samples is back-calculated using the calibration curve calculated from the standards.
An elastase reference stock solution (human neutrophil elastase [ELA2], Höltzel Diagnostika, Köln, Germany, #PN31255) with known enzymatic activity was prepared. The exact active elastase enzyme concentration was determined by titration against an alpha 1-antitrypsin solution (Athens Research and Technology, Athens, USA, #16-16-011609), with a defined concentration. The active elastase reference stock solution was adjusted by addition of PBS to a concentration of 3000 nM and aliquots were stored at −80° C.
The FRET assay was performed in 96 well white microtiter plates in total volume of 100 μL per well. PBS sputum dilutions of 1:5, 1:50 and 1:100 in elastase reaction buffer (50 mM HEPES, pH 7.4, 750 mM NaCl, 0.05% [v/v] NP-40) were prepared, 5 uL loaded per well and 90 uL elastase reaction buffer were added. A 5 mM substrate stock solution of 2Abz-Ala-Pro-Glu-Glu-Ile-Met-Arg-Arg-Gln-Tyr(3NO2)—OH in 30% (v/v) N,N-dimethylformamide/water was prepared and further diluted to 400 nM by addition of elastase reaction buffer. […]

Which results are given for `CCCCCCCC[C@@H]1NC(=O)[C@@H]2CCCN2C(=O)[C@H]2CCCN2C(=O)[C@H](Cc2ccc(O)cc2)NC(=O)[C@H](CCCCN)NC(=O)[C@H](CCC(N)=O)NC(=O)[C@@H]2CCCN2C(=O)[C@@H]2CCCN2C(=O)[C@H]([C@@H](C)CC)NC(=O)[C@H](CO)NC(=O)[C@H](C)NC(=O)[C@H]([C@@H](C)O)NC(=O)[C@H](CCC(=O)O)NC1=O` [active compound, cyclo(-OctG-Glu-Thr-Ala-Ser-Ile-Pro-Pro-Gln-Lys-Tyr-^DPro-Pro-)] (cyclo([Gly(octyl)]ETASIPPQKY[dP]P))?
NOAEL at 28 days ([1]; in vivo, inhaled or intranasal, rat, inhalation 100 min per day for 28 days, read-out: No Observed Adverse Effect Level (NOAEL)): 119 mg/kg/day; Body weight gain ([1]; male rats at 119 mg/kg/day vs vehicle control): Slightly reduced; Clinical signs and ophthalmic findings ([1]; rat, 11, 53 and 119 mg/kg/day): no clinical signs or ophthalmic findings; Clinical pathology (haematology, coagulation, clinical chemistry, urinalysis) ([1]; rat, in vivo): no findings in clinical pathology; Histopathology of the larynx ([1]; rat, in vivo): focal minimal squamous metaplasia without cellular atypia of dysplasia; Histopathology of the lungs ([1]; rat, in vivo): minimal to moderate multifocal alveolar macrophage accumulation; Mean concentration of active NE in sputum after single-dose inhalation ([2]; CF patients, 80-320 mg, extent independent of dose): strongly decreased; Mean concentration of active NE in sputum at 24 h after inhalation ([2]; CF patients, high data variability): returned to baseline levels; Mean (SD) concentration of active NE in sputum ([2]; dose level 1 (80 mg), 1-3 h after inhalation, predose 18823.6 (19758.72)): 612.5 (1218.62) ng/mL; Mean (SD) concentration of active NE in sputum ([2]; dose level 1 (80 mg), 24 h after inhalation): 1467.7 (2154.43) ng/mL; Mean (SD) concentration of active NE in sputum ([2]; dose level 2 (160 mg), 1-3 h after inhalation, predose 9548.7 (6222.55)): 115.0 (0.00) ng/mL; Mean (SD) concentration of active NE in sputum ([2]; dose level 2 (160 mg), 24 h after inhalation): 16849.4 (23518.56) ng/mL; Mean (SD) concentration of active NE in sputum ([2]; dose level 3 (320 mg), 1-3 h after inhalation, predose 10480.7 (10528.00)): 115.0 (0.00) ng/mL; Mean (SD) concentration of active NE in sputum ([2]; dose level 3 (320 mg), 24 h after inhalation): 7712.5 (11394.04) ng/mL; Inhibition of active elastase in sputum ([2]; over several hours after single dose, all dose groups (FIG. 5)): > 90%
